From US9956197B2 (priority 2013, dated 2018)

How the values were obtained:
[1] = test system: Picrotoxin (PIC) induced clonic seizure; assay: animal or person; type: in vivo, ICR mice
[2] = test system: ACTH-refractory infantile spasm (behavioral spasms); assay: animal or person; type: in vivo, Sprague-Dawley rats
[3] = test system: 6 Hz-induced seizure; assay: animal or person; type: in vivo, mice; details: ip
[4] = test system: Lithium-pilocarpine induced status epilepticus; set-up: species or system Sprague-Dawley rats; details: in vivo
[5] = test system: PTZ (Pentylenetetrazol) induced clonic seizure; assay: animal or person; type: in vivo, ICR mice; details: mouse, in vivo, ip

C[C@H](OC(N)=O)[C@@H](O)c1ccccc1Cl [Compound 1, 1-(2-chlorophenyl)-(S)-1-hydroxypropyl-(S)-2-carbamate]
ED50 ([1]; Mus musculus, ip, read-out: PIC (ip) ED50): 18.2 mg/kg
PIC (ip) Peak Time ([1]; mice): 2 h
ED50 ([2]; Rattus norvegicus, ip, read-out: ACTH-refractory IS (ip) ED50): 19.8 mg/kg
ACTH-refractory IS (ip) Peak Time ([2]; rat, in vivo): 1 h
ED50 ([3]; Mus musculus, read-out: 6 Hz ED50, 44 mA): 13.7 mg/kg
6 Hz Peak Time ([3]; mouse, in vivo): 0.25 h
Prevention (rat, ip) Peak Time [4]: 2 h
PTZ test (ip) in Mice Peak Time [5]: 2 h
